Experimental data taken from ChEMBL document CHEMBL3044614, “Synthesis and pharmacological evaluation of m-terphenyl amines as cyclooxygenase inhibitors” (Med Chem Res, 2007).
Calls of active or inactive are those of the source. The rule behind the calls is not given here.

What was measured:
[1] = molecular target: T1, Prostaglandin G/H synthase 2 (Homo sapiens) (UniProt P35354); test: Inhibition of cyclooxygenase-2 in Homo sapiens (human) whole blood assessed as LPS-induced PGE2 production at 10 uM incubated 15 min prior to LPS challenge measured after 24 hr by enzyme immunoassay
T1 sequence (whole entry): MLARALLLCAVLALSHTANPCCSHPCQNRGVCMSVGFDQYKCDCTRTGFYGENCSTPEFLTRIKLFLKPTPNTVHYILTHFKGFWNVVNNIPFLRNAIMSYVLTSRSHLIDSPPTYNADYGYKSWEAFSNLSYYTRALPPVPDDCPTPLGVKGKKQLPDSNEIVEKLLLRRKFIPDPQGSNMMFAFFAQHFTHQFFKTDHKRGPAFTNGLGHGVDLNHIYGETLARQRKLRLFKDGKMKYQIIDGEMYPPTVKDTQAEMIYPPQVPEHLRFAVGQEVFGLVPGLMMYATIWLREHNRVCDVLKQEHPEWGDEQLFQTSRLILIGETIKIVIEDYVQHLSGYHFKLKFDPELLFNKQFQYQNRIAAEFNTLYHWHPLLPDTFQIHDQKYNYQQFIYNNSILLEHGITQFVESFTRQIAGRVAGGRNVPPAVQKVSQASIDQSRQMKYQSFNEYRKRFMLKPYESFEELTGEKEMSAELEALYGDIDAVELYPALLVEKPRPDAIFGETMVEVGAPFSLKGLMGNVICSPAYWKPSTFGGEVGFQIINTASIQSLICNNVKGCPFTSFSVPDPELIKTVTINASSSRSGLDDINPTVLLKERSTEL

[2] = molecular target: T1, Prostaglandin G/H synthase 2 (Homo sapiens); test: Inhibition of cyclooxygenase-2 in Homo sapiens (human) whole blood assessed as LPS-induced PGE2 production at 100 uM incubated 15 min prior to LPS challenge measured after 24 hr by enzyme immunoassay
[3] = molecular target: T2, Prostaglandin G/H synthase 1 (Homo sapiens, UniProt P23219); test: Inhibition of cyclooxygenase-1 in Homo sapiens (human) whole blood assessed as thromboxane B2 production at 10 uM after 1 hr by enzyme immunoassay
T2 sequence (P23219 whole entry): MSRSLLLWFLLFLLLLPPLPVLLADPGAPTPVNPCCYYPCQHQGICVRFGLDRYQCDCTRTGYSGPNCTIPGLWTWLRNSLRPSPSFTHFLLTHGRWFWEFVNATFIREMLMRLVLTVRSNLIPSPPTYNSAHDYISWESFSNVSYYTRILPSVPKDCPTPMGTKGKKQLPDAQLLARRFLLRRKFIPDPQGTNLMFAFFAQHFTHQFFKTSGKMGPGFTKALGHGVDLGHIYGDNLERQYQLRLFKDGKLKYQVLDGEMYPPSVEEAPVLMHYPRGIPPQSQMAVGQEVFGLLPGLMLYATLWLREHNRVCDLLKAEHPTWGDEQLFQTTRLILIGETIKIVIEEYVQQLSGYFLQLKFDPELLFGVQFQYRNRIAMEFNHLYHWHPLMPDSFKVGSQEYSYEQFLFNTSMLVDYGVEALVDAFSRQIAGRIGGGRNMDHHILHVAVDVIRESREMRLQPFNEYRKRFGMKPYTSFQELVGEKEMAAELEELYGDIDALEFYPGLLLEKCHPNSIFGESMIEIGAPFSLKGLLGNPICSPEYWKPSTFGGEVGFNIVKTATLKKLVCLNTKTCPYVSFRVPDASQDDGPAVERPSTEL

[4] = molecular target: T2, Prostaglandin G/H synthase 1; test: Inhibition of cyclooxygenase-1 in Homo sapiens (human) whole blood assessed as thromboxane B2 production at 100 uM after 1 hr by enzyme immunoassay
[5] = molecular target: T2, Prostaglandin G/H synthase 1; test: Inhibition of COX-1 (unknown origin)
[6] = molecular target: T3, Prostaglandin G/H synthase 2 (Homo sapiens, UniProt P35354); test: Inhibition of Homo sapiens (human) cyclooxygenase-2
T3 sequence (P35354 whole entry): T1 sequence (whole entry)

Structure (SMILES)	inhibition [1]	inhibition [2]	inhibition [3]	inhibition [4]	IC50 [5]	IC50 [6]
Nc1cc(-c2ccccc2)cc(-c2ccccc2)c1	68%	92%	56%	98%	–	–
Cc1ccc(-c2cc(N)cc(-c3ccc(C)cc3)c2)cc1	57%	86%	27%	87%	–	–
CS(=O)(=O)c1ccc(-c2cc(N)cc(-c3ccccc3)c2)cc1	inactive	inactive	23%	85%	–	–
Cc1c(CC(=O)O)cc(-c2ccccc2)cc1-c1ccccc1	–	–	–	–	17 µM	120 µM
CCOc1ccc(-c2cc(N)cc(-c3ccc(OCC)cc3)c2)cc1	inactive	inactive	inactive	inactive	–	–
Nc1cc(-c2ccc(Cl)cc2)cc(-c2ccc(Cl)cc2)c1	76%	99%	19%	93%	–	–

Results, then the compound that gave them:

inhibition [1]	inhibition [2]	inhibition [3]	inhibition [4]	IC50 [5]	IC50 [6]	Structure (SMILES)
49%	95%	46%	96%	–	–	Cc1ccc(-c2cc(N)cc(-c3ccccc3)c2)cc1
85%	98%	63%	97%	–	–	Nc1cc(-c2ccccc2)cc(-c2ccc(Cl)cc2)c1
inactive	78%	inactive	92%	–	–	COc1ccc(-c2cc(N)cc(-c3ccccc3)c2)cc1
inactive	inactive	20%	88%	–	–	CCOc1ccc(-c2cc(N)cc(-c3ccccc3)c2)cc1
inactive	inactive	29%	92%	–	–	CSc1ccc(-c2cc(N)cc(-c3ccccc3)c2)cc1
